This note sets out measurements from patent EP4793641A1, “NOVEL METHOD FOR ANALYZING BIOMOLECULAR INTERACTIONS” (Kyoto University, priority 2023, dated 2025).

Non-standard residues stand in square brackets, D forms with d. Residues, ends and D or L forms follow the SMILES beside them. *: point of attachment. pS = N[C@@H](COP(=O)(O)O)C(=O)O; Mob = COc1ccc(C*)cc1; Meb = Cc1ccc(C*)cc1; Bn = c1ccc(C*)cc1; Acm = CC(=O)NC*; tBu = CC(C)(C)*; Cam = NC(=O)C*

For the experiment, the target named is T1, interactions between Talin 1 (TLN1) and integrin subunit beta (ITGB) (Homo sapiens, UniProt Q9Y490).
T1 construct: LgBit or SmBit (N-terminal of the HaloTag); made in house
Kind of experiment: Flip-flop detection mechanism on DNA origami (LgBit/SmBit luminescence), inhibitor screening. The experiment is classed as biochemical. The note with it: inhibition of binding between TLN1 and ITBG; for IC50: read-out: Inhibitory activity. The text has this:
Two types of systems, i.e., flip-flop detection mechanism and switch detection mechanism, were constructed by using HaloTag, LgBit, SmBit, TLN1, and ITGB. Each of TLN1 (Uniprot ID: Q9Y490) and ITGB1 (Uniprot ID: P05556) was cloned from the registered genetic information. HaloTAg has three chemically modifiable locations at a ligand recognition site, C-terminus, and N-terminus. In this Example, a single-stranded DNA for attaching to DNA origami was connected to a ligand recognition site of HaloTag, a subunit of an interaction complex was connected to the C-terminus, and LgBit or SmBit was connected to the N-terminus.
The outline of the system is disclosed in Figure 23. When TLN1 and ITBG are in a bound state in this system, LgBit and SmBit are at spatially separated positions from each other, with a HaloTag interposed therebetween. In this regard, if an inhibitor is added, complex formation of TLN1 and ITBG is inhibited. As a result, a LgBit-SmBit complex can be formed, and a luminescence reaction progresses.
As a candidate drug for inhibiting the binding between TLN1 and ITBG, peptide inhibitors consisting of 13 amino acids prepared by modifying amino acids in an intracellular region of ITGB3 have been designed (Shen B. et al., A directional switch of integrin signaling and a new antithrombotic strategy. Nature 503, 131-135 (2013)). IC50 values for the peptides shown in the following table were calculated by using the flip-flop detection mechanism described in Example 11 for optimizing the sequence. In this manner, the effect of a large number of compounds on the interaction with a target protein can be readily analyzed in the system of the present disclosed.

With `CSCC[C@H](NC(=O)[C@H](CCCCN)NC(=O)[C@H](CCC(=O)O)NC(=O)[C@H](CCCNC(=N)N)NC(=O)[C@H](CCC(=O)O)NC(=O)[C@H](Cc1ccccc1)NC(=O)[C@@H](N)CCCCN)C(=O)N[C@@H](CC(N)=O)C(=O)N[C@@H](CS)C(=O)N[C@@H](CCCCN)C(=O)N[C@@H](Cc1c[nH]c2ccccc12)C(=O)N[C@@H](CCSC)C(=O)N[C@H](C(=O)O)[C@@H](C)O` [FIYM27] (H-KFEREKMNCKWMT-OH), the IC50 turned out to be 94.7 µM.

On to `CSCC[C@H](NC(=O)[C@H](CCCNC(=N)N)NC(=O)[C@H](CCC(=O)O)NC(=O)[C@H](CCCCN)NC(=O)[C@H](CCC(=O)O)NC(=O)[C@H](Cc1ccccc1)NC(=O)[C@@H](N)CCCCN)C(=O)N[C@@H](CC(N)=O)C(=O)N[C@@H](CS)C(=O)N[C@@H](CCCCN)C(=O)N[C@@H](Cc1c[nH]c2ccccc12)C(=O)N[C@@H](CCSC)C(=O)N[C@H](C(=O)O)[C@@H](C)O` [FIYM28] (H-KFEKERMNCKWMT-OH), for which the Inhibitory activity result is reported as “no inhibition”. The same measure, in the same setting: as for `CSCC[C@H](NC(=O)[C@H](CCCCN)NC(=O)[C@H](CCC(=O)O)NC(=O)[C@H](CCCCN)NC(=O)[C@H](CCC(=O)O)NC(=O)[C@H](Cc1ccccc1)NC(=O)[C@@H](N)CCCCN)C(=O)N[C@@H](CCSC)C(=O)N[C@@H](CS)C(=O)N[C@@H](CCCCN)C(=O)N[C@@H](Cc1c[nH]c2ccccc12)C(=O)N[C@@H](CCSC)C(=O)N[C@H](C(=O)O)[C@@H](C)O` [FIYM29] (H-KFEKEKMMCKWMT-OH), the entry is “no inhibition”; as for `CSCC[C@H](NC(=O)[C@H](CCCNC(=N)N)NC(=O)[C@H](CCC(=O)O)NC(=O)[C@H](CCCCN)NC(=O)[C@H](CCC(=O)O)NC(=O)[C@H](Cc1ccccc1)NC(=O)[C@@H](N)CCCNC(=N)N)C(=O)N[C@@H](CC(N)=O)C(=O)N[C@@H](CS)C(=O)N[C@@H](CCCCN)C(=O)N[C@@H](Cc1c[nH]c2ccccc12)C(=O)N[C@@H](CCSC)C(=O)N[C@H](C(=O)O)[C@@H](C)O` [FIYM30] (H-RFEKERMNCKWMT-OH), “no inhibition”; as for `CSCC[C@H](NC(=O)[C@H](CCCCN)NC(=O)[C@H](CCC(=O)O)NC(=O)[C@H](CCCNC(=N)N)NC(=O)[C@H](CCC(=O)O)NC(=O)[C@H](Cc1ccccc1)NC(=O)[C@@H](N)CCCCN)C(=O)N[C@@H](CCSC)C(=O)N[C@@H](CS)C(=O)N[C@@H](CCCCN)C(=O)N[C@@H](Cc1c[nH]c2ccccc12)C(=O)N[C@@H](CCSC)C(=O)N[C@H](C(=O)O)[C@@H](C)O` [FIYM32] (H-KFEREKMMCKWMT-OH), “no inhibition”. `CSCC[C@H](NC(=O)[C@H](CCCNC(=N)N)NC(=O)[C@H](CCC(=O)O)NC(=O)[C@H](CCCCN)NC(=O)[C@H](CCC(=O)O)NC(=O)[C@H](Cc1ccccc1)NC(=O)[C@@H](N)CCCCN)C(=O)N[C@@H](CCSC)C(=O)N[C@@H](CS)C(=O)N[C@@H](CCCCN)C(=O)N[C@@H](Cc1c[nH]c2ccccc12)C(=O)N[C@@H](CCSC)C(=O)N[C@H](C(=O)O)[C@@H](C)O` [FIYM33] (H-KFEKERMMCKWMT-OH): the Inhibitory activity entry is on record as “no inhibition”. The same measure, in the same setting: in the case of `CSCC[C@H](NC(=O)[C@H](CCCCN)NC(=O)[C@H](CCC(=O)O)NC(=O)[C@H](CCCCN)NC(=O)[C@H](CCC(=O)O)NC(=O)[C@H](Cc1ccccc1)NC(=O)[C@@H](N)CCCCN)C(=O)N[C@@H](CC(N)=O)C(=O)N[C@H](C(=O)N[C@@H](CCCCN)C(=O)N[C@@H](Cc1c[nH]c2ccccc12)C(=O)N[C@@H](CCSC)C(=O)N[C@H](C(=O)O)[C@@H](C)O)[C@@H](C)O` [FIYM34] (H-KFEKEKMNTKWMT-OH) it was “no inhibition”; in that of `CSCC[C@H](NC(=O)[C@H](CCCCN)NC(=O)[C@H](CCC(=O)O)NC(=O)[C@H](CCCCN)NC(=O)[C@H](CCC(=O)O)NC(=O)[C@H](Cc1ccccc1)NC(=O)[C@@H](N)CCCCN)C(=O)N[C@@H](CC(N)=O)C(=O)N[C@@H](CCSC)C(=O)N[C@@H](CCCCN)C(=O)N[C@@H](Cc1c[nH]c2ccccc12)C(=O)N[C@@H](CCSC)C(=O)N[C@H](C(=O)O)[C@@H](C)O` [FIYM35] (H-KFEKEKMNMKWMT-OH), “no inhibition”; in that of `CSCC[C@H](NC(=O)[C@H](CCCCN)NC(=O)[C@H](CCC(=O)O)NC(=O)[C@H](CCCCN)NC(=O)[C@H](CCC(=O)O)NC(=O)[C@H](Cc1ccccc1)NC(=O)[C@@H](N)CCCCN)C(=O)N[C@@H](CC(N)=O)C(=O)N[C@@H](COP(=O)(O)O)C(=O)N[C@@H](CCCCN)C(=O)N[C@@H](Cc1c[nH]c2ccccc12)C(=O)N[C@@H](CCSC)C(=O)N[C@H](C(=O)O)[C@@H](C)O` [FIYM36] (H-KFEKEKMN[pS]KWMT-OH), “no inhibition”.

Regarding `CSCC[C@H](NC(=O)[C@H](CCCCN)NC(=O)[C@H](CCC(=O)O)NC(=O)[C@H](CCCCN)NC(=O)[C@H](CCC(=O)O)NC(=O)[C@H](Cc1ccccc1)NC(=O)[C@@H](N)CCCCN)C(=O)N[C@@H](CC(N)=O)C(=O)N[C@@H](CSCNC(C)=O)C(=O)N[C@@H](CCCCN)C(=O)N[C@@H](Cc1c[nH]c2ccccc12)C(=O)N[C@@H](CCSC)C(=O)N[C@H](C(=O)O)[C@@H](C)O` [FIYM38] (H-KFEKEKMNC(Acm)KWMT-OH), the Inhibitory activity result is “no inhibition”. Turning to `CSCC[C@H](NC(=O)[C@H](CCCCN)NC(=O)[C@H](CCC(=O)O)NC(=O)[C@H](CCCCN)NC(=O)[C@H](CCC(=O)O)NC(=O)[C@H](Cc1ccccc1)NC(=O)[C@@H](N)CCCCN)C(=O)N[C@@H](CC(N)=O)C(=O)N[C@@H](CSCC(N)=O)C(=O)N[C@@H](CCCCN)C(=O)N[C@@H](Cc1c[nH]c2ccccc12)C(=O)N[C@@H](CCSC)C(=O)N[C@H](C(=O)O)[C@@H](C)O` [FIYM39] (H-KFEKEKMNC(Cam)KWMT-OH), the IC50 amounted to 131 µM. For `CSCC[C@H](NC(=O)[C@H](CCCCN)NC(=O)[C@H](CCC(=O)O)NC(=O)[C@H](CCCCN)NC(=O)[C@H](CCC(=O)O)NC(=O)[C@H](Cc1ccccc1)NC(=O)[C@@H](N)CCCCN)C(=O)N[C@@H](CC(N)=O)C(=O)N[C@@H](CSC(C)(C)C)C(=O)N[C@@H](CCCCN)C(=O)N[C@@H](Cc1c[nH]c2ccccc12)C(=O)N[C@@H](CCSC)C(=O)N[C@H](C(=O)O)[C@@H](C)O` [FIYM40] (H-KFEKEKMNC(tBu)KWMT-OH), the IC50 was found to be 110 µM. For `CSCC[C@H](NC(=O)[C@H](CCCCN)NC(=O)[C@H](CCC(=O)O)NC(=O)[C@H](CCCCN)NC(=O)[C@H](CCC(=O)O)NC(=O)[C@H](Cc1ccccc1)NC(=O)[C@@H](N)CCCCN)C(=O)N[C@@H](CC(N)=O)C(=O)N[C@@H](CSCc1ccc(C)cc1)C(=O)N[C@@H](CCCCN)C(=O)N[C@@H](Cc1c[nH]c2ccccc12)C(=O)N[C@@H](CCSC)C(=O)N[C@H](C(=O)O)[C@@H](C)O` [FIYM41] (H-KFEKEKMNC(Meb)KWMT-OH), the Inhibitory activity entry is given as “no inhibition”. Same read-out and setting: in the case of `COc1ccc(CSC[C@H](NC(=O)[C@H](CC(N)=O)NC(=O)[C@H](CCSC)NC(=O)[C@H](CCCCN)NC(=O)[C@H](CCC(=O)O)NC(=O)[C@H](CCCCN)NC(=O)[C@H](CCC(=O)O)NC(=O)[C@H](Cc2ccccc2)NC(=O)[C@@H](N)CCCCN)C(=O)N[C@@H](CCCCN)C(=O)N[C@@H](Cc2c[nH]c3ccccc23)C(=O)N[C@@H](CCSC)C(=O)N[C@H](C(=O)O)[C@@H](C)O)cc1` [FIYM42] (H-KFEKEKMNC(Mob)KWMT-OH) it was “no inhibition”; in that of `CSCC[C@H](NC(=O)[C@H](CCCCN)NC(=O)[C@H](CCC(=O)O)NC(=O)[C@H](CCCCN)NC(=O)[C@H](CCC(=O)O)NC(=O)[C@H](Cc1ccccc1)NC(=O)[C@@H](N)CCCCN)C(=O)N[C@@H](CC(N)=O)C(=O)N[C@@H](CSCc1ccccc1)C(=O)N[C@@H](CCCCN)C(=O)N[C@@H](Cc1c[nH]c2ccccc12)C(=O)N[C@@H](CCSC)C(=O)N[C@H](C(=O)O)[C@@H](C)O` [FIYM43] (H-KFEKEKMNC(Bn)KWMT-OH), “no inhibition”. Take `C[C@H](NC(=O)[C@H](CCCNC(=N)N)NC(=O)[C@H](C)NC(=O)[C@H](CCCNC(=N)N)NC(=O)[C@H](CCC(=O)O)NC(=O)[C@H](CCC(=O)O)NC(=O)[C@H](CCC(=O)O)NC(=O)[C@H](Cc1ccccc1)NC(=O)[C@@H](N)CCCCN)C(=O)N[C@@H](CCCCN)C(=O)N[C@@H](Cc1c[nH]c2ccccc12)C(=O)N[C@@H](CC(=O)O)C(=O)N[C@H](C(=O)O)[C@@H](C)O` [FIYM45] (H-KFEEERARAKWDT-OH): the IC50 is 314 µM.

For the compound `CSCC[C@H](NC(=O)[C@H](C)NC(=O)[C@H](CCCCN)NC(=O)[C@H](CS)NC(=O)[C@H](CC(N)=O)NC(=O)[C@H](CCSC)NC(=O)[C@H](CCCCN)NC(=O)[C@H](CCC(=O)O)NC(=O)[C@H](CCCCN)NC(=O)[C@H](CCC(=O)O)NC(=O)[C@H](C)NC(=O)[C@@H](N)CCCCN)C(=O)N[C@H](C(=O)O)[C@@H](C)O` [FIYM46] (H-KAEKEKMNCKAMT-OH), the IC50 was 474 µM.
